{
  "source": "ChEMBL document CHEMBL1201862",
  "about": "“PubChem BioAssay data set” (2004)",
  "key": {"[1]": {"molecular_target": "DNA dC->dU-editing enzyme APOBEC-3G (Homo sapiens, UniProt Q9HC16)", "sequence (Q9HC16 whole entry)": "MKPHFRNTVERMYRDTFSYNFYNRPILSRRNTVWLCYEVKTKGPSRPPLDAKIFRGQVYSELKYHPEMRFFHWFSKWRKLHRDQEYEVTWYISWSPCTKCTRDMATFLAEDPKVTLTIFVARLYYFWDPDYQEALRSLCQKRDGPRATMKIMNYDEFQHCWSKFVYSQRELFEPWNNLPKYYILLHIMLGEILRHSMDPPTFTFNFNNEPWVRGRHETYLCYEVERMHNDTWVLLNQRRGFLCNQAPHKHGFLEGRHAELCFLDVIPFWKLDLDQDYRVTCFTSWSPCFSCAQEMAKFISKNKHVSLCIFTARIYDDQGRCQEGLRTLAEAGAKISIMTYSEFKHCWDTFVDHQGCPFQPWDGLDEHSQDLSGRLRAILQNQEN", "format": "functional"}, "[2]": {"molecular_target": "DNA dC->dU-editing enzyme APOBEC-3A (Homo sapiens, UniProt P31941)", "sequence (P31941 whole entry)": "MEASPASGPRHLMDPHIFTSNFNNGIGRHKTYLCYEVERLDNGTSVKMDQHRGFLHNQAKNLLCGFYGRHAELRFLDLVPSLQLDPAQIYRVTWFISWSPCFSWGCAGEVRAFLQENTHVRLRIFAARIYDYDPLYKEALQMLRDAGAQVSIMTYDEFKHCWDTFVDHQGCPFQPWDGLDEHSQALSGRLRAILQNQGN", "assay": "Dose Response confirmation of small molecule APOBEC3A DNA Deaminase Inhibitors via a fluorescence-based single-stranded DNA deaminase assay. [Related pubchem assays (depositor defined):AID493011, AID493024]", "format": "functional"}, "[3]": {"molecular_target": "Beta-galactosidase (Escherichia coli, UniProt Q8VNN2)", "sequence (Q8VNN2 whole entry)": "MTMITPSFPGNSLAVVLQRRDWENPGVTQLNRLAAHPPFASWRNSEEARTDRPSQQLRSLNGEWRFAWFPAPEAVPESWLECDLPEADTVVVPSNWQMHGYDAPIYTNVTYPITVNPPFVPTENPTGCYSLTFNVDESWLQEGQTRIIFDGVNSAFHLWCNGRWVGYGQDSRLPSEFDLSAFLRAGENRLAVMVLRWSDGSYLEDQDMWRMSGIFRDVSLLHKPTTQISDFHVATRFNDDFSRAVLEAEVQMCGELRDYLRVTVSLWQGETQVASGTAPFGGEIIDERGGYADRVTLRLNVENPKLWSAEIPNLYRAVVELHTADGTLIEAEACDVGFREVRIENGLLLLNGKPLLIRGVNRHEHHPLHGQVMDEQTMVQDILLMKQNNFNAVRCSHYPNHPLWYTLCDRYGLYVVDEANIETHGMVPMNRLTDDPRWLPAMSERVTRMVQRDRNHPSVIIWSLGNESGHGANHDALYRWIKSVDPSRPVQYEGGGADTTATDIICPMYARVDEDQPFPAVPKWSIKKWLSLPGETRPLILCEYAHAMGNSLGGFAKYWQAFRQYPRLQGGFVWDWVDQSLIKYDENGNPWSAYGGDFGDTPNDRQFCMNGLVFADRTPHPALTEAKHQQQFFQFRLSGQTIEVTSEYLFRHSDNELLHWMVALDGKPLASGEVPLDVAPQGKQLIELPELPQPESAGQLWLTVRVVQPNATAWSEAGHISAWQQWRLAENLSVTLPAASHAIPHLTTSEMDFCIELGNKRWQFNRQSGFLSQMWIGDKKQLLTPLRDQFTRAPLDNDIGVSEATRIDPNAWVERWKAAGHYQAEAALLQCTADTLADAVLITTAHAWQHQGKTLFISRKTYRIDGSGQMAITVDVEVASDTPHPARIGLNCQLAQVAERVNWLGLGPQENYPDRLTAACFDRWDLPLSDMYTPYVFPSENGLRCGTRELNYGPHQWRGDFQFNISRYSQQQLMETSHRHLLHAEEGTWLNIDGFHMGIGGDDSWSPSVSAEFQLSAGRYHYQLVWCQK", "assay": "Dose response counterscreen for EBI2 assay utilizing the enzyme, b-galactosidase.", "format": "functional"}, "[4]": {"test_system": "INS1", "assay": "beta cell apoptosis inhibitors, cytokine rescue, dose response, luminescence, retest (AID 449756);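 also: cell death triggered by IL-1 beta plus TNF-alpha plus IFN-gamma mixture; protective hits raise ATP signal compared with cytokine alone wells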", "format": "functional, cell-based", "settings": "Rattus norvegicus"}, "[5]": {"assay": "inhibitors of intracellular T. cruzi replication, confirmation, NIH3T3 host cells, beta-gal luminescence (AID 2044);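 also: luminescent beta-galactosidase reporter signal from transgenic T. cruzi replicating inside host cells; inhibitors lower the luminescence signal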", "format": "functional, cell-based"}, "[6]": {"assay": "cytotoxicity toward NIH3T3 fibroblasts, dose response, counter-screen, cell-based, ATP luminescence, mouse fibroblasts (AID 2010);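 also: cells exposed to compound for about 90 hours before reading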", "format": "functional"}, "[7]": {"molecular_target": "T1, DNA repair protein RAD52 homolog (Homo sapiens, UniProt P43351)", "T1 sequence (P43351 whole entry)": "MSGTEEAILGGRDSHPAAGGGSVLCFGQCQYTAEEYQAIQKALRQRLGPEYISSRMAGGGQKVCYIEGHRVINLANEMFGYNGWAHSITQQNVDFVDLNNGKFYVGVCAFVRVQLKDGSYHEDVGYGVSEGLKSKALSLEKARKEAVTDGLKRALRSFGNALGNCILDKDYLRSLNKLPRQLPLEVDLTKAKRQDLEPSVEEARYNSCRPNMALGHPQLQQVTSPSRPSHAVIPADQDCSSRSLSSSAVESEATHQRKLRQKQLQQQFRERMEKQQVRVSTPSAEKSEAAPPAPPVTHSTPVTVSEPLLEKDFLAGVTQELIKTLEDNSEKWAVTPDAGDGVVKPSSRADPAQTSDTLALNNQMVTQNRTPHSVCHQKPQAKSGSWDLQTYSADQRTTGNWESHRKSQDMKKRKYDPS", "format": "functional, biochemical"}, "[8]": {"assay": "cytotoxicity in HEK-293T cells, dose response, cytotoxicity control for TCR NF-kB inhibitor project, luminescence, T-cell screen hits (AID 489026);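 also: cells exposed to compound about 14 hours before the viability readout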", "format": "functional, cell-based"}, "[9]": {"molecular_target": "Tumor necrosis factor (Homo sapiens, UniProt P01375)", "sequence (P01375 whole entry)": "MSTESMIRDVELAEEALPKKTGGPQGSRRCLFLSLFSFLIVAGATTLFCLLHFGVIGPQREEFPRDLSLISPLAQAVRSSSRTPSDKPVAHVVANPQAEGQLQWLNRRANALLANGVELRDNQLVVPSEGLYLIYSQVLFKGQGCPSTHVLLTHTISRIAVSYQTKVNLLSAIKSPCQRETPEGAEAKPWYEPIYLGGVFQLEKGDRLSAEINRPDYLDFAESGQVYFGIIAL", "assay": "TNFa-triggered NF-kB activation inhibitors, SAR follow-up, cell-based, revised (AID 2337)", "format": "functional"}, "[10]": {"test_system": "HEK293", "assay": "cells", "settings": "Homo sapiens"}, "[11]": {"molecular_target": "T2, Nucleotide-binding oligomerization domain-containing protein 1 (Homo sapiens, UniProt Q9Y239)", "T2 sequence (Q9Y239 whole entry)": "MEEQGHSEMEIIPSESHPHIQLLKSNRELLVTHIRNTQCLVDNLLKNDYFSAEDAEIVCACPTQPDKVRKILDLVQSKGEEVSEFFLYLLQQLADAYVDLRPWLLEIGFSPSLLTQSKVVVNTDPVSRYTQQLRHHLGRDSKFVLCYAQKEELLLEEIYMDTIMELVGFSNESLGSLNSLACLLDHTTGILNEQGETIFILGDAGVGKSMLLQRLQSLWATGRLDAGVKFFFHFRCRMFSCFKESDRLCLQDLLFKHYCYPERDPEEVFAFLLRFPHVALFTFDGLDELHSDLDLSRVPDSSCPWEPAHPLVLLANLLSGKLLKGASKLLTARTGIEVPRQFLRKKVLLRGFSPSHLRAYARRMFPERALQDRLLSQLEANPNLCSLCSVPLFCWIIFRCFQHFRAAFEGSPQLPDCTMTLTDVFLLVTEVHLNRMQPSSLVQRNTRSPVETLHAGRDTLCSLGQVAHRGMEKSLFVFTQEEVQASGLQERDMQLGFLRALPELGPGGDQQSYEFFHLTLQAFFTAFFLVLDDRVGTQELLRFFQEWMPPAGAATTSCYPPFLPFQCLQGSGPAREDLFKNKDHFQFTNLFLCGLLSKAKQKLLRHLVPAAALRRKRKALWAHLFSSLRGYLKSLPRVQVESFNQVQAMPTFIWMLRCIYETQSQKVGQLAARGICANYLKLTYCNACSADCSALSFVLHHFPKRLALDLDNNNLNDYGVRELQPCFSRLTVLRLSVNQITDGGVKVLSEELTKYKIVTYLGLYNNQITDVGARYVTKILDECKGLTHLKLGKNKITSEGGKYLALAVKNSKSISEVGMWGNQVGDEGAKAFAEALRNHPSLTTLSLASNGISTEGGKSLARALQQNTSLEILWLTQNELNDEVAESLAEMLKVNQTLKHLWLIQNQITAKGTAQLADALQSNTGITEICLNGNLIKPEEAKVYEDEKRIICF", "assay": "NOD1 signaling inhibitors, SAR follow-up, revised (AID 2333)", "format": "functional"}, "[12]": {"molecular_target": "T3, Protein skinhead-1 (Caenorhabditis elegans, UniProt P34707)", "T3 sequence (P34707 whole entry)": "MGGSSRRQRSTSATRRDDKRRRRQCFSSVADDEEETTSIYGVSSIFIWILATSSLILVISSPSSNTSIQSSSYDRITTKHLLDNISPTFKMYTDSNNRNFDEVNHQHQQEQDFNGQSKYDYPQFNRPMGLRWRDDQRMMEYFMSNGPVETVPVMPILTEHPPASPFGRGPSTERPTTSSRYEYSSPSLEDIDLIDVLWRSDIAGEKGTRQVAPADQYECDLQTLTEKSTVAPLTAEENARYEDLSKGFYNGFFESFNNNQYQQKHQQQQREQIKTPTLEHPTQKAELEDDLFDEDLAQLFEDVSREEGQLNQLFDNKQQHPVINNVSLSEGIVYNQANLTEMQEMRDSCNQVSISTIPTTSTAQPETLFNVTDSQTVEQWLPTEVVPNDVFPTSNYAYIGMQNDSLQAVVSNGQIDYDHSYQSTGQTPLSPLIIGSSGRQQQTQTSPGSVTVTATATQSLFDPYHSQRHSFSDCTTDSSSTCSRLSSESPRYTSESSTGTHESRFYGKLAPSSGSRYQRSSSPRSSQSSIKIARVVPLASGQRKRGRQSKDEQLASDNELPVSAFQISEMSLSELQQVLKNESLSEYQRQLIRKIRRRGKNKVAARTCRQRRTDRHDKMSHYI", "format": "functional"}, "[13]": {"molecular_target": "T4, Corticotropin-releasing factor receptor 2/Corticotropin-releasing factor-binding protein (Homo sapiens, UniProt P24387+Q13324)", "T4 sequence (Q13324 whole entry)": "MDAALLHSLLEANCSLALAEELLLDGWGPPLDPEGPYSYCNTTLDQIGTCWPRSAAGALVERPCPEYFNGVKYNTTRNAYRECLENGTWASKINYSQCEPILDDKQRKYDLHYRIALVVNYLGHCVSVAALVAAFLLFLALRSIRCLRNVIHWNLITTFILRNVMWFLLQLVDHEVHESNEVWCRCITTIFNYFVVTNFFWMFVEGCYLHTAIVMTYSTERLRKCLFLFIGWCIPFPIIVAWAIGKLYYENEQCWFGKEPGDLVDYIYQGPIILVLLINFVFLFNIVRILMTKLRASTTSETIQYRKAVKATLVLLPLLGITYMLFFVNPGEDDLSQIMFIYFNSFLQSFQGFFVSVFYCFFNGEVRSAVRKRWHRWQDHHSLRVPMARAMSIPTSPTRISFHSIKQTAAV", "T4 sequence (P24387 whole entry)": "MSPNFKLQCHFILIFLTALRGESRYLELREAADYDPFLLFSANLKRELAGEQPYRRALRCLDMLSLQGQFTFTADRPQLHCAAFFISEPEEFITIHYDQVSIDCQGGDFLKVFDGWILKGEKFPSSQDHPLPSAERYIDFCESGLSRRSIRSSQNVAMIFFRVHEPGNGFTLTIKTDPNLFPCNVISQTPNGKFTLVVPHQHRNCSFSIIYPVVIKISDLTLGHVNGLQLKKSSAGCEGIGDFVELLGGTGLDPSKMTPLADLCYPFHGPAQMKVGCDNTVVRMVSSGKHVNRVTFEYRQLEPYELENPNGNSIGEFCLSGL", "assay": "Dose Response confirmation of uHTS hits for small molecule antagonists of the CRF-binding protein and CRF-R2 receptor complex.", "format": "functional", "settings": "read-out: IC50_Mean"}, "[14]": {"molecular_target": "T4, Corticotropin-releasing factor receptor 2/Corticotropin-releasing factor-binding protein", "assay": "activators of CRF receptor 2 with binding protein – uHTS hits, confirmation (AID 602473)", "format": "functional", "settings": "read-out: EC50_Mean"}, "[15]": {"assay": "HepG2 cell cytotoxicity, dose response, cytotoxicity control, plate reader, cherry-pick, antagonist series (AID 743416)", "format": "functional, cell-based"}, "[16]": {"assay": "A549 cell cytotoxicity, dose response, cytotoxicity control, plate reader, cherry-pick, antagonist series (AID 743412)", "format": "functional, cell-based"}},
  "note": "Activity calls are given as the source filed them.",
  "data": [
    {"smiles": "CN(Cc1ccccc1)C(=O)c1ncn(C)c1C(=O)N(C)Cc1ccccc1", "values": [
      {"measurement": "IC50", "setting": "[1]", "result": "> 100 µM (inactive)"},
      {"measurement": "IC50", "setting": "[2]", "result": "3.15 µM (active)"}
    ]},
    {"smiles": "Cc1sc2nc(C3CC3)nc(N3CCN(C(=O)c4ccc(Cl)cc4)CC3)c2c1C", "values": [
      {"measurement": "IC50", "setting": "[3]", "result": "> 80 µM (inactive)"}
    ]},
    {"smiles": "CC1(C)CC(N2CCN(c3ccccc3)CC2)=CC(=[N+]2CCCC2)C1", "values": [
      {"measurement": "IC50", "setting": "[1]", "result": "2.24 µM (active)"},
      {"measurement": "AC50", "setting": "[4]", "result": "1.81 µM (active)"},
      {"measurement": "IC50", "setting": "[2]", "result": "2.15 µM (active)"},
      {"measurement": "EC50", "setting": "[5]", "result": "0.263 µM (active)"},
      {"measurement": "EC50", "setting": "[6]", "result": "> 60 µM (not active)"}
    ]},
    {"smiles": "Cn1c(C(=O)NCCCN2CCCCCC2)cc2c(=O)n(C)c3ccccc3c21", "values": [
      {"measurement": "AC50", "setting": "[7]", "result": "12.4 µM (active)"}
    ]},
    {"smiles": "CC(=O)c1ccc(N2CCN(S(=O)(=O)c3ccc4c(c3)CC(C)N4C(=O)C3CC3)CC2)cc1", "note": "(stereo unspecified)", "values": [
      {"measurement": "IC50", "setting": "[8]", "result": "> 80 µM (inactive)"},
      {"measurement": "IC50", "setting": "[9]", "result": "3.18 µM (active)"},
      {"measurement": "IC50", "setting": "[10]", "result": "> 20 µM (inactive)"},
      {"measurement": "IC50", "setting": "[11]", "result": "8.77 µM (active)"}
    ]},
    {"smiles": "COc1ccc2[nH]c(=O)c(CN(C(=O)c3ccco3)C(C)C)cc2c1", "values": [
      {"measurement": "IC50", "setting": "[1]", "result": "6.32 µM (active)"},
      {"measurement": "IC50", "setting": "[2]", "result": "6.26 µM (active)"}
    ]},
    {"smiles": "Cc1ccc(/C=C2/SC(Nc3ccc(F)cc3)=NC2=O)s1", "values": [
      {"measurement": "IC50", "setting": "[12]", "result": "> 100 µM (inactive)"},
      {"measurement": "IC50", "setting": "[1]", "result": "7.58 µM (active)"},
      {"measurement": "IC50", "setting": "[2]", "result": "3.22 µM (active)"}
    ]},
    {"smiles": "CCN1C(NCCOC)=N[C@@H](c2ccccc2)[C@H](C(=O)OC)[C@H]1C", "values": [
      {"measurement": "IC50", "setting": "[1]", "result": "4.28 µM (active)"},
      {"measurement": "IC50", "setting": "[2]", "result": "4.47 µM (active)"}
    ]},
    {"smiles": "CCOC(=O)N1CCN(C(=O)c2cc3c(O)nc4ccccc4c3s2)CC1", "values": [
      {"measurement": "IC50", "setting": "[3]", "result": "> 80 µM (inactive)"}
    ]},
    {"smiles": "CCc1ccc(CN(C)C(=O)c2cc(=O)c3ccccc3o2)cc1", "values": [
      {"measurement": "IC50", "setting": "[3]", "result": "> 80 µM (inactive)"}
    ]},
    {"smiles": "O=C(COc1ccc2ccccc2c1)N1CCN(C(=O)c2ccc([N+](=O)[O-])cc2)CC1", "values": [
      {"measurement": "IC50", "setting": "[13]", "result": "> 47.1 µM (inactive)"},
      {"measurement": "IC50", "setting": "[3]", "result": "> 80 µM (inactive)"},
      {"measurement": "EC50", "setting": "[14]", "result": "> 53 µM (inactive)"}
    ]},
    {"smiles": "CC(=O)Nc1ccc(CNc2nc(NCCN(C)C)nc3cc(-c4ccccc4)sc23)cc1", "values": [
      {"measurement": "AC50", "setting": "[7]", "result": "1.37 µM (active)"}
    ]},
    {"smiles": "Cc1ccc(NC(=O)c2ncn(CC(=O)N3CCN(c4ccccn4)CC3)n2)cc1C", "values": [
      {"measurement": "AC50", "setting": "[15]", "result": "> 52 µM (inactive)"},
      {"measurement": "AC50", "setting": "[16]", "result": "> 52 µM (inactive)"}
    ]},
    {"smiles": "CCOC(=O)N(C)c1c(CC)nc2c(OCc3ccc(Cl)cc3Cl)cccn12", "values": [
      {"measurement": "IC50", "setting": "[3]", "result": "121 µM (inactive)"}
    ]},
    {"smiles": "CC(=O)Nc1ccc(Nc2cc(C)nc(Nc3ccc(NC(C)=O)cc3)n2)cc1", "values": [
      {"measurement": "IC50", "setting": "[1]", "result": "16.4 µM (active)"},
      {"measurement": "IC50", "setting": "[2]", "result": "11 µM (active)"}
    ]}
  ]
}
